Experimental data: patent US20230158176A1, “NEAR-INFRARED FLUORESCENT SMALL-MOLECULE PROBE, SYNTHESIS METHOD AND APPLICATION THEREOF” (Linyi University, priority 2021, published 2023)

Experiments:
[1] = tested on: murine mammary carcinoma cells (4T1 cells); test: In vitro evaluation of cytotoxicity by CCK-8; assay type: cell-based; settings: 10 μM to 60 μM, incubated 1 h
Method: Respective toxicity of the IR-780-F solution and the IR-780 solution with concentrations from 10 μM to 60 μM on murine mammary carcinoma cells (also referred to as 4T1 cells) is measured by cell counting kit-8 (CCK-8). Incubated 4T1 cells are collected and centrifuged to prepare cell suspensions, and a cell concentration is adjusted to 8×10^4 cells per milliliter. The 4T1 cells are transferred to 96-well plates, and 100 microliters (μL) 4T1 cells are added to each well, so that a density of the cells to be tested is about 8000 cells per well, and the number of the 96-well plates for experiment is two. The two 96-well plates inoculated with the cells to be tested are placed in an incubator at 37° C. for 12 h. One plate is incubated with the IR-780-F solutions with a concentration gradient from 10 μM to 60 μM for 1 h; the other plate is incubated with the IR-780 solutions with a concentration gradient from 10 μM to 60 μM for 1 h. After the end of incubation, CCK-8 reagent (a volume of 10 μL, a concentration of 5 mg/mL, i.e. 0.5% CCK-8 reagent) is immediately added to the each well and the two 96-well plates continue to incubate for 40 min. Finally, absorptivity and intensity of the each well are tested by an enzyme calibration, and cell viability of the control group is taken as 100%, and the cell viability of the test groups are taken as the percentage of the control group.

[2] = In vitro photothermal efficiency under 808 nm laser radiation; assay type: physicochemical; settings: for highest temperature of the solution: 2.0 W/cm^2, solutions 0.2-1.2 mg/mL in PBS
Method: To evaluate in vitro thermogenesis of IR-780 solution and IR-780-F solution, 10 millimoles per litter (mM) IR-780-F solution dissolved in the dimethyl sulfoxide is used, and the IR-780-F solution is respectively diluted to the concentrations of 0.2 milligrams per milliliters (mg/mL), 0.4 mg/mL, 0.8 mg/mL, and 1.2 mg/mL with the phosphate buffered saline and these IR-780-F solutions and the phosphate buffered saline are evaluated. The IR-780 solution is prepared as above.
Temperature changes of the IR-780-F solutions and the phosphate buffered saline and temperature changes of the IR-780 solutions and the phosphate buffered saline are respectively recorded by using an infrared thermal imaging camera (a model of FLIR-E6). The phosphate buffered saline as a control group, 0.2 mg/mL of the IR-780-F solution and 0.2 mg/mL of the IR-780 solution, 0.4 mg/mL of the IR-780-F solution and 0.4 mg/mL of the IR-780 solution, 0.8 mg/mL of the IR-780-F solution and 0.8 mg/mL of the IR-780 solution, 1.2 mg/mL of the IR-780-F solution and 1.2 mg/mL of the IR-780 solution are all exposed to 808 nm laser radiation with a power density of 2.0 Watt per square centimeter (W/cm^2) to be measured and recorded the temperature changes.

[3] = tested on: 4T1 tumor-bearing nude mice; test: In vivo NIR fluorescence imaging / distribution in tumor-bearing mice; design: species or system BALB/c Nude mice; settings: 4 mg/kg via tail vein
Method: (§1) The incubated 4T1 cells are collected by centrifugation, rinsed three times with PBS buffer solution to prepare cell suspensions, which are used a cell counter to count cell number. The cell suspensions are respectively diluted to desired concentrations with the PBS buffer solution. The pretreated 4T1 cells (about 1×10^6 per 100 μL) are injected subcutaneously into right hind legs of BALB/c Nude mice and tumor model mice are obtained after about one week.
In order to determine an optimal time for in vivo photothermal treatment with the IR-780-F, tissue permeability and distribution of the IR-780-F in tumor-bearing mice are examined by means of a whole animal near infrared (NIR) imaging system. An injection of the IR-780-F (containing 12.4% dimethyl sulfoxide) is prepared with PBS buffer solution. When the tumors in the tumor-bearing mice grow to a certain volume, 4 milligrams per kilogram of the tumor-bearing mice (mg/kg) IR-780-F is injected into the tumor-bearing mice via tail vein. The anesthetized nude mice are placed into a in vivo imaging apparatus (also referred to as living imaging apparatus) and subjected to fluorescence imaging at 0 h, 2 h, 4 h, 8 h, 12 h, 24 h, 48 h, 72 h, 96 h and 120 h. […] The organs are placed in the living imaging apparatus to observe fluorescence distribution of each organ.

[4] = Molecular spectrum test (absorption and emission spectra); assay type: physicochemical; settings: for maximum emission wavelength: λex 740 nm
Method: A certain mass of the IR-780-F sample is weighed and dissolved in dimethyl sulfoxide (DMSO) to obtain a solving solution, and the quantitative solving solution is added to 2-[4-(2-hydroxyethyl)-1-piperazinyl]-ethanesulfonic acid (HEPES, also referred to as C8H18N2O4S) buffer solution to form a solution with a concentration of 10.0 micromoles per liter […] (containing 10% dimethyl sulfoxide) and an absorption spectrum of the IR-780-F sample is measured. Ultraviolet absorption spectrum is obtained by Agilent Ultraviolet-Vis spectrophotometer with a scanning wavelength range from 500 nanometers (nm) to 900 nm at a sweep rate of 1002 nanometers per minute (nm/min). Furthermore, addition quantitative solving solution is respectively added to methanol, acetonitrile, phosphate buffered saline (PBS buffer solution), HEPES buffer solution, bovine serum and adult serum to form a solution with a concentration of 10.0 μM (containing 10% dimethyl sulfoxide) to test an emission spectrum of the IR-780-F sample. Hitachi F-4600 […] is used to obtain FT-IR emission spectrum, of the scanning wavelength is from 750 nm to 900nm, an excitation wavelength λex is 740 nm, an excitation slit width is 5 nm, and an emission slit width is 5 nm.

[5] = tested on: 4T1 tumor-bearing nude mice; test: Photothermal treatment effect in tumor-bearing mice; assay type: in vivo, BALB/c Nude mice
Method: as §1
After successful tumor loading, mice with an average tumor diameter of about 10×10 mm are randomly divided into four groups (5 mice in each group): (1) control group: intratumoral injection of 0.1 mL of saline; (2) laser group: intratumoral injection of 0.1 mL of saline followed by a laser radiation (a wavelength of 808 nm, 2.0 W/cm^2, 4 min); (3) IR-780-F group: intratumoral injection of 0.1 mL (corresponding to 80 micrograms abbreviated μg) of the IR-780-F solution without the laser radiation; (4) IR-780-F+laser group: intratumoral injection of 80 μg of the IR-780-F solution followed by the laser radiation (a wavelength of 808 mn, 2.0 W/cm^2, 4 min). The mice are anesthetized after administration of the medicine, and the tumor locations of the mice are placed under the laser radiation. When the laser irradiated the tumor locations of the mice, the temperature of the tumor locations under the laser radiation are simultaneously recorded when measured by the thermal infrared imager.

[6] = tested on: 4T1 tumor-bearing nude mice; test: Photothermal efficiency at tumor location in vivo; design: species or system BALB/c Nude mice; settings: IR-780-F+laser radiation group, intratumoral injection, laser 4 minutes
Method: as §1
The injection of the IR-780-F (containing 12.4% dimethyl sulfoxide) is prepared with PBS buffer solution for intratumoral injection. After 12 hours, the nude mice are anesthetized, imaged using a photothermal imager, and temperature changes are recorded. The tumor locations of the mice are irradiated with a laser for 4 minutes, and then the photothermal imaging is again performed on the corresponding tumor locations to record the corresponding temperature.

Structure (SMILES)	cell viability of the 4T1 cells [1]	highest temperature of the solution [2]	fluorescence distribution in dissected organs and tumors ([3]; dissected five days later)	distribution of near-infrared fluorescence in vivo ([3]; imaging 0-120 h)	Stoke shift value (difference between maximum emission wavelength and maximum absorption wavelength) [4]	maximum emission wavelength ([4]; in FBS)	maximum emission wavelength ([4]; in HAS)	maximum absorption wavelength ([4]; in HEPES, 10.0 μM, 10% dimethyl sulfoxide)	maximum emission wavelength ([4]; in HEPES)	maximum emission wavelength ([4]; in MeCN)	maximum emission wavelength ([4]; in MeOH)	tumor size ([5]; IR-780-F group: 80 μg intratumoral without laser radiation, 12th day)	tumor growth ([5]; IR-780-F without laser, compared with laser alone and control PBS group, P>0.05)	mean tumor size ([5]; IR-780-F+laser group: 80 μg intratumoral, 808 nm, 2.0 W/cm^2, 4 min, 12th day)	tumor volumes of excised tumors ([5]; IR-780-F+laser radiation group, sacrificed at the 12th day)	tumor growth ([5]; IR-780-F+laser radiation, P<0.01)	surface temperature of the tumor locations [6]	photothermal conversion effect compared with IR-780 [2]
CCCN1/C(=C/C=C2\CCCC(/C=C/C3=[N+](CCC)c4ccccc4C3(C)C)=C2Cl)C(C)(C)c2ccccc21.[I-] [IR-780, reference compound]	decreases with the increase of the concentrations	69.3 °C	–	–	–	–	–	–	–	–	–	–	–	–	–	–	–	–
CC1(C)C(/C=C/C2=C(Cl)C(=C/C=C3/N(CCC(F)(F)F)c4ccccc4C3(C)C)/CCC2)=[N+](CCC(F)(F)F)c2ccccc21 [IR-780-F]	decreases with the increase of the concentrations	69.3 °C	mainly concentrated at the tumor location and there is weak fluorescence in the lungs	significant tumor targeting accumulation	38 nm	820 nm	818 nm	773 nm	804 nm	816 nm	814 nm	559±49 mm^3	does not show a significant inhibition	94±11 mm^3	significantly smaller than those in the other three groups	significantly inhibited	52.9±0.2 °C	better photothermal conversion effect than that of the IR-780
